# Reference: article PMC12820809 (Biomacromolecules, 2025)
# Several values for one entry are separate records, joined by “and”; a condition that tells them apart may be missing. Identical values can stand only once.
# Key:
# [1] = molecular target: STAT3; experiment: pSTAT3 inhibition IC50, STAT3 luciferase reporter assay; format: cell-based, human; conditions: THP-1STAT3-Luc cells, 72 h treatment, then IL-6 stimulation 5 h, luminescence
# [2] = in water at a concentration equivalent to 10 mg/mL of LLL12
# [3] = cited from earlier work
# [4] = tested on: THP-1STAT3-Luc cells; conditions: 72 h, concentration beyond 1.23 μg/mL
# [5] = tested on: bone marrow cells from wildtype C57BL/6 mice (M-MDSCs, dendritic cells); format: cell-based; conditions: 72 h, KR158 glioma conditioned media
structure (smiles),measurement,setting,value
NS(=O)(=O)c1cccc2c1C(=O)c1cccc(O)c1C2=O [LLL12],IC50 of STAT3 inhibition,[1],0.31 ± 0.05 µg/mL and 0.307 µg/mL
same,Water solubility (visual),[2],poorly soluble
same,LogP,[3],2.596
same,Cell death,[4],~100%
same,Ly6C+ M-MDSC population compared to vehicle control,[5]; 0.4 μg/mL and 0.04 μg/mL,statistically significant reduction
same,CD86+ cells (APC activation),[5]; 0.004-0.4 μg/mL,dose-dependent increase
same,CD11c expression (CD11c+ cells) compared to vehicle,[5]; highest concentration (0.4 μM),statistically significant increase
